How the values were obtained:
Type in all cases: in vivo, rabbit
[1] = system: normotensive adult rabbits; assay: IOP measurement (TonoPen XL) after a single topical 50-μL drop in rabbits
Method: (§1) Male and female adult brown burgundy rabbits (2.6-4.4 kg) are used in this study. Animals are kept in individual cages under well-defined and standardized conditions (humidity and temperature controlled room, 13 h light/11 h dark cycle) with standard dry food and water ad libitum. All animals are accustomed to the procedure of IOP measurement but only those animals that have stable records are included in the study. All experiments are conducted in accordance with the ARVO resolution for the use of animals in ophthalmic and vision research and are approved by the Federal and Local Ethical and Agricultural Committees.
(§2) Solutions of a test drug are freshly prepared before each experiment by dissolution in sterile balanced salt solution (BSS) (Alcon Pharmaceuticals Ltd, Forth Worth, Tex., USA) at the required concentrations under sterile conditions. One 50-μL drop of the test solution is applied topically to the right eye whereas the contralateral eye receives the carrier BSS only.
IOP is measured with a TonoPen XL (Mentor, Norvel, Mass.), the device being calibrated daily according to the manufacturer's instructions. […] Corneas are anaesthetized by topical application of a 50-μL drop of 0.2% Novocaine prior to each IOP measurement.
Measurements are always initiated at the same time (8 a.m.), a sufficient recovery period of at least 7 days is provided for the animals between the experiments. Control readings are taken 10 minutes before instillation of the test drug to the right eye and of the vehicle to the left one. IOP is recorded at 1-hour intervals for the ensuing 8 hours. Baseline measurements are likewise performed hourly in all animals prior to treatment, for monitoring of diurnal rhythms. (9)
Data are analyzed according to the Mann-Whitney U-test. IOP values recorded before and after application of Rivastigmine or the drug vehicle are compared in the same eye, differences with a first order error of P<0.05 being considered as statistically significant.

[2] = system: normotensive adult rabbits; assay: Pupil diameter measurement; details: topical 1%, 2%, 5% solutions
Method: as §1, §2
Pupil diameter is measured horizontally in both eyes using a pupil gauge closely applied to the cornea under diffuse illumination conditions.

[3] = system: normotensive adult rabbits; assay: Slit-lamp examination (local tolerability); details: topical 1%, 2%, 5% solutions; before and 4 and 8 hours after administration
Method: as §1, §2
Slit-lamp biomicroscopy is performed by a trained ophthalmologist before drug administration and 4 and 8 hours thereafter. Eyes are controlled for conjunctival redness and discharge, for integrity of the corneal epithelium and for the absence or presence of flare (protein in the anterior chamber being an indication of blood aqueous barrier breakdown).

CCN(C)C(=O)Oc1cccc(C(C)N(C)C)c1 (centres unmarked) [Rivastigmine]
Time of maximal mean decrease in IOP, treated eye ([1]; 1% solution): 5 h
Duration of significant IOP-lowering effect, treated eyes ([1]; 1% solution (longest effect)): 5 h
IOP, left eye (untreated, vehicle) ([1]; 1% solution applied to contralateral right eye, n=8, time 0 hrs (control reading before instillation)): 12.0 mm
Time of maximal mean decrease in IOP, untreated eye ([1]; 1% solution to contralateral eye): 4 h
IOP, left eye (untreated, vehicle) ([1]; 1% solution to contralateral eye, time 1 hrs): 11.6 mm
IOP, left eye (untreated, vehicle) ([1]; 1% solution to contralateral eye, time 2 hrs): 11.2 mm
IOP, left eye (untreated, vehicle) ([1]; 1% solution to contralateral eye, time 3 hrs): 11.1 mm
IOP, left eye (untreated, vehicle) ([1]; 1% solution to contralateral eye, time 4 hrs): 10.2 mm
IOP, left eye (untreated, vehicle) ([1]; 1% solution to contralateral eye, time 5 hrs): 11.0 mm
IOP, left eye (untreated, vehicle) ([1]; 1% solution to contralateral eye, time 6 hrs): 10.7 mm
IOP, left eye (untreated, vehicle) ([1]; 1% solution to contralateral eye, time 7 hrs): 11.1 mm
IOP, left eye (untreated, vehicle) ([1]; 1% solution to contralateral eye, time 8 hrs): 11.4 mm
IOP, right eye (treated) ([1]; 1% solution, 50-μL drop topical, n=8, time 0 hrs (control reading before instillation)): 12.3 mm
Maximal mean decrease in IOP, treated eye ([1]; 1% solution, 5 hours after application): 2.6±1.2 mm Hg
IOP, right eye (treated) ([1]; 1% solution, time 1 hrs): 12.0 mm
IOP, right eye (treated) ([1]; 1% solution, time 2 hrs): 11.2 mm
IOP, right eye (treated) ([1]; 1% solution, time 3 hrs): 10.8 mm
IOP, right eye (treated) ([1]; 1% solution, time 4 hrs): 10.5 mm
IOP, right eye (treated) ([1]; 1% solution, time 5 hrs): 10.1 mm
IOP, right eye (treated) ([1]; 1% solution, time 6 hrs): 11.1 mm
IOP, right eye (treated) ([1]; 1% solution, time 7 hrs): 11.5 mm
IOP, right eye (treated) ([1]; 1% solution, time 8 hrs): 11.6 mm
Time of maximal mean decrease in IOP, treated eye ([1]; 2% solution): 3 h
IOP, left eye (untreated, vehicle) ([1]; 2% solution applied to contralateral right eye, n=4, time 0 hrs (control reading before instillation)): 11.2 mm
Time of maximal mean decrease in IOP, untreated eye ([1]; 2% solution to contralateral eye): 3 h
IOP, left eye (untreated, vehicle) ([1]; 2% solution to contralateral eye, time 1 hrs): 11.9 mm
IOP, left eye (untreated, vehicle) ([1]; 2% solution to contralateral eye, time 2 hrs): 11.2 mm
IOP, left eye (untreated, vehicle) ([1]; 2% solution to contralateral eye, time 3 hrs): 10.2 mm
IOP, left eye (untreated, vehicle) ([1]; 2% solution to contralateral eye, time 4 hrs): 12.3 mm
IOP, left eye (untreated, vehicle) ([1]; 2% solution to contralateral eye, time 5 hrs): 11.5 mm
IOP, left eye (untreated, vehicle) ([1]; 2% solution to contralateral eye, time 6 hrs): 11.2 mm
IOP, left eye (untreated, vehicle) ([1]; 2% solution to contralateral eye, time 7 hrs): 11.0 mm
IOP, left eye (untreated, vehicle) ([1]; 2% solution to contralateral eye, time 8 hrs): 13.0 mm
IOP, right eye (treated) ([1]; 2% solution, 50-μL drop topical, n=4, time 0 hrs (control reading before instillation)): 11.5 mm
Maximal mean decrease in IOP, treated eye ([1]; 2% solution, 3 hours after application): 2.2±0.8 mm Hg
IOP, right eye (treated) ([1]; 2% solution, time 1 hrs): 11.5 mm
IOP, right eye (treated) ([1]; 2% solution, time 2 hrs): 11.0 mm
IOP, right eye (treated) ([1]; 2% solution, time 3 hrs): 9.2 mm
IOP, right eye (treated) ([1]; 2% solution, time 4 hrs): 10.8 mm
IOP, right eye (treated) ([1]; 2% solution, time 5 hrs): 11.5 mm
IOP, right eye (treated) ([1]; 2% solution, time 6 hrs): 11.1 mm
IOP, right eye (treated) ([1]; 2% solution, time 7 hrs): 10.8 mm
IOP, right eye (treated) ([1]; 2% solution, time 8 hrs): 12.0 mm
Time of maximal mean decrease in IOP, treated eye ([1]; 5% solution): 1 h
IOP, left eye (untreated, vehicle) ([1]; 5% solution applied to contralateral right eye, n=6, time 0 hrs (control reading before instillation)): 13.4 mm
Time of maximal mean decrease in IOP, untreated eye ([1]; 5% solution to contralateral eye): 1 h
IOP, left eye (untreated, vehicle) ([1]; 5% solution to contralateral eye, time 1 hrs): 10.7 mm
IOP, left eye (untreated, vehicle) ([1]; 5% solution to contralateral eye, time 2 hrs): 11.5 mm
IOP, left eye (untreated, vehicle) ([1]; 5% solution to contralateral eye, time 3 hrs): 11.3 mm
IOP, left eye (untreated, vehicle) ([1]; 5% solution to contralateral eye, time 4 hrs): 11.9 mm
IOP, left eye (untreated, vehicle) ([1]; 5% solution to contralateral eye, time 5 hrs): 13.2 mm
IOP, left eye (untreated, vehicle) ([1]; 5% solution to contralateral eye, time 6 hrs): 12.5 mm
IOP, left eye (untreated, vehicle) ([1]; 5% solution to contralateral eye, time 7 hrs): 13.3 mm
IOP, left eye (untreated, vehicle) ([1]; 5% solution to contralateral eye, time 8 hrs): 13.0 mm
Significance of IOP decrease in untreated eyes ([1]; 5% solution to contralateral eye, P<0.05, Mann-Whitney U-test): significant
IOP, right eye (treated) ([1]; 5% solution, 50-μL drop topical, n=6, time 0 hrs (control reading before instillation)): 13.7 mm
Maximal mean decrease in IOP, treated eye ([1]; 5% solution, 1 hour after application): 3.5±1.2 mm Hg
IOP, right eye (treated) ([1]; 5% solution, time 1 hrs): 10.0 mm
IOP, right eye (treated) ([1]; 5% solution, time 2 hrs): 11.1 mm
IOP, right eye (treated) ([1]; 5% solution, time 3 hrs): 10.8 mm
IOP, right eye (treated) ([1]; 5% solution, time 4 hrs): 10.5 mm
IOP, right eye (treated) ([1]; 5% solution, time 5 hrs): 12.9 mm
IOP, right eye (treated) ([1]; 5% solution, time 6 hrs): 12.5 mm
IOP, right eye (treated) ([1]; 5% solution, time 7 hrs): 14.0 mm
IOP, right eye (treated) ([1]; 5% solution, time 8 hrs): 11.8 mm
IOP effect in the treated eye (in words) ([1]; topical 1%, 2%, 5% solutions): lowers the IOP significantiy
Pupil reaction in drug-treated eyes [2]: insignificant miotic pupil reaction
Local toxicity (slit-lamp: redness, discharge, corneal epithelium, flare) [3]: No signs of rivastigmine-related local toxicity

— patent US6835748B2, “Treatment of ocular disorders” (priority 1999, dated 2004)
